The target in one data set is T1, PSMA (Homo sapiens, UniProt Q04609).
T1 construct: endogenous in cells; host or cells: LNCaP cell lysate
In words: PSMA inhibition assay (fluorescence-based, NAAG hydrolysis, Amplex Red). Type of data set: biochemical. To be noted: for Ki: lysates of LNCaP cell extracts, 4 μM NAAG, Cheng-Prusoff conversion. The method, then:
The PSMA inhibitory activity of 1, 2 and DKFZ-PSMA-11 and the corresponding natural Ga-labeled analogs Ga-1 and Ga-2 were determined using a fluorescence-based assay according to a previously reported procedure (Banerjee et al. (2011) Angewandte Chemie 50, 9167-70) (Table 1). Briefly, lysates of LNCaP cell extracts (25 μL) were incubated with the inhibitor (12.5 μL) in the presence of 4 μM N-acetylaspartylglutamate (NAAG) (12.5 μL) for 2 h. The amount of the glutamate released by NAAG hydrolysis was measured by incubating with a working solution (50 μL) of the Amplex Red Glutamic Acid Kit (Life Technologies, Grand Island, N.Y.) for 1 h.
Fluorescence was measured with a VICTOR3V multilabel plate reader (Perkin Elmer Inc., Waltham, Mass.) with excitation at 490 nm and emission at 642 nm. Inhibition curves were determined using semi-log plots and IC50 values were determined at the concentration at which enzyme activity was inhibited by 50%. Enzyme inhibitory constants (Ki values) were generated using the Cheng-Prusoff conversion (Cheng et al. (1973) Biochemical pharmacology 22, 3099-108). Assays were performed in triplicate. Data analysis was performed using GraphPad Prism version 4.00 for Windows (GraphPad Software, San Diego, Calif.).

Data set [1] in a line: Hydrophilicity/lipophilicity judged from HPLC retention (RP C8). Type of data set: physicochemical. To be noted: based on HPLC retention time.
For data set [2] the following is noted: chelating agent with gallium, cited from earlier work.
For data set [3], the system named is PSMA+ PC3 PIP and PSMA− PC3 flu tumors. Briefly: Tissue biodistribution in mice bearing PSMA+ PC3 PIP and PSMA− PC3 flu tumors. To be noted: mouse, in vivo.
Data set [4] shares this test system.
The mark [5] stands for this setting: 1 h post-injection, mean ± SD, n = 4.
The mark [6] stands for this setting: 2 h post-injection, mean ± SD, n = 4.
Setting [7] is: 3 h post-injection, mean ± SD, n = 4.

Entries after “also recorded” stand apart in the source; their conditions may differ. Like-named read-outs stand apart in the source and are kept apart here.

T1 sequence (Q04609 whole entry): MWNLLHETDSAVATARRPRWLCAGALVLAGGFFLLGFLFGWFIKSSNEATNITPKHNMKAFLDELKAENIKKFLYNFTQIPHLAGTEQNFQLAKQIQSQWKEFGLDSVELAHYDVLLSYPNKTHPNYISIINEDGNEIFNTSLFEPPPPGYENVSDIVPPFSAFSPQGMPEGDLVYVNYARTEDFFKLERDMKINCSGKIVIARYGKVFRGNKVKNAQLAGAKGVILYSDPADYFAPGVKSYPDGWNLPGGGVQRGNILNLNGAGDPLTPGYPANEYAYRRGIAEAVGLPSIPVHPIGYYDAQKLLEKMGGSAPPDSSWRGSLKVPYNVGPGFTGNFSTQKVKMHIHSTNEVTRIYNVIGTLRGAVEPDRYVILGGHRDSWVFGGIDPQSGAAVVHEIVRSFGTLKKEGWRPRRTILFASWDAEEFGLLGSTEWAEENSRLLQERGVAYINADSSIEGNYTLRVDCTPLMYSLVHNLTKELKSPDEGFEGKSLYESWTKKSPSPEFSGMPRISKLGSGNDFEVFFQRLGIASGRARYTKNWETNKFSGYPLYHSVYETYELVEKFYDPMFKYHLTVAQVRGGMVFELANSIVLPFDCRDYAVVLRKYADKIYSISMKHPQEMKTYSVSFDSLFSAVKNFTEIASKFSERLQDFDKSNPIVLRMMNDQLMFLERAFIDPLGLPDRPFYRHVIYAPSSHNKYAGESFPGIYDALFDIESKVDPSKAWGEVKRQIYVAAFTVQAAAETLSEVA

Broadly, the Ki is the equilibrium dissociation constant of an inhibitor or competing ligand from its target. Consider `O=C(O)CCC(NC(=O)NC(CCCCNC(=O)CCCCCCC(=O)NCCCCC(NC(=O)C(Cc1ccccc1)NC(=O)C(Cc1ccccc1)NC(=O)CN1CCN(CC(=O)O)CCN(CC(=O)O)CCN(CC(=O)O)CC1)C(=O)O)C(=O)O)C(=O)O` (centres unmarked) [Compound 1], for which the Ki on PSMA stood at 0.7 nM.

The compound `O=C(O)CCC(NC(=O)NC(CCCCNC(=O)CCCCCCC(=O)NC(CCCCNC(=S)Nc1ccc(CC2CN(CC(=O)O)CCN(CC(=O)O)CCN2CC(=O)O)cc1)C(=O)O)C(=O)O)C(=O)O` (centres unmarked) [Compound 2] yielded a Ki on PSMA of 0.81 nM.

For `O=C(O)CCc1ccc(O)c(CN(CCN(CC(=O)O)Cc2cc(CCC(=O)NCCCCCC(=O)NCCCC[C@H](NC(=O)N[C@@H](CCC(=O)O)C(=O)O)C(=O)O)ccc2O)CC(=O)O)c1` [DKFZ-PSMA-11, Glu-urea-Lys-(Ahx)-HBED-CC, reference compound], the “hydrophilicity/lipophilicity rank in the series” value in data set [1] was “least hydrophilic; also recorded: most lipophilic”. For the same compound, at PSMA, the “PSMA-binding affinity relative to Ga-1 and Ga-2” value is recorded as “ten-fold higher”; the Ki worked out at 0.03 nM.

Take `O=C(O)CN1CCN(CC(=O)O)CCN(CC(=O)O)CCN(CC(=O)O)CC1` [DOTA, 1,4,7,10-tetraazacyclododecane-1,4,7,10-tetraacetic acid]: the stability constant, KML, for 68Ga in data set [2] (the values are: log stability constant) was 21.3.

Take `O=C([O-])CN1CCN(CC(=O)[O-])CCN(CC(=O)NC(Cc2ccccc2)C(=O)NC(Cc2ccccc2)C(=O)NC(CCCCNC(=O)CCCCCCC(=O)NCCCCC(NC(=O)NC(CCC(=O)O)C(=O)O)C(=O)O)C(=O)O)CCN(CC(=O)[O-])CC1.[Ga+3]` (centres unmarked) [Ga-1]: the Ki at PSMA amounted to 0.33 nM.

In turn, `O=C([O-])CN1CCN(CC(=O)[O-])CC(Cc2ccc(NC(=S)NCCCCC(NC(=O)CCCCCCC(=O)NCCCCC(NC(=O)NC(CCC(=O)O)C(=O)O)C(=O)O)C(=O)O)cc2)N(CC(=O)[O-])CC1.[Ga+3]` (centres unmarked) [Ga-2] yielded a Ki on PSMA of 0.38 nM.

For `O=C([O-])CN(CCN(CC(=O)[O-])Cc1cc(CCC(=O)NCCCCCC(=O)NCCCCC(NC(=O)NC(CCC(=O)O)C(=O)O)C(=O)O)ccc1[O-])Cc1cc(CCC(=O)O)ccc1[O-].[Ga+3]` (centres unmarked) [Ga-DKFZ-PSMA-11], the “hydrophilicity/lipophilicity rank in the series” value in data set [1] is “most hydrophilic”.

Take `O=C(O)CN1CCN(CC(=O)O)CCN(CC(=O)O)CC1` [NOTA, 1,4,7-triazacyclononane-1,4,7-trisacetic acid]: in data set [2], the “stability constant, KML, for 68Ga” value is recorded as 31.1.

With `O=C([O-])CN1CCN(CC(=O)[O-])CC(Cc2ccc(NC(=S)NCCCCC(NC(=O)CCCCCCC(=O)NCCCCC(NC(=O)NC(CCC(=O)O)C(=O)O)C(=O)O)C(=O)O)cc2)N(CC(=O)[O-])CC1.[68Ga+3]` (centres unmarked) [^68Ga-2], in data set [3], the “rate of clearance from tissues, comparison of the three radiotracers” value is “fastest rate of clearance from all tissues”.

For the compound `O=C([O-])CN(CCN(CC(=O)[O-])Cc1cc(CCC(=O)NCCCCCC(=O)NCCCCC(NC(=O)NC(CCC(=O)O)C(=O)O)C(=O)O)ccc1[O-])Cc1cc(CCC(=O)O)ccc1[O-].[68Ga+3]` (centres unmarked) [^68Ga-DKFZ-PSMA-11, reference compound], the “hydrophilicity/lipophilicity rank in the series” value in data set [1] is on record as “most hydrophilic”. Further, the “PSMA+ PC3 PIP-to-PSMA− PC3 flu ratio” value in data set [4] (1 h post-injection) came out at 46.62±7.57. Further, in data set [4] (setting [5]), the “PIP:blood ratio” value is reported as 35.45 ± 13.43, the “PIP:flu (PSMA+ PC3 PIP-to-PSMA− PC3 flu tumor uptake ratio)” value was 46.62 ± 17.57, the “PSMA+ PC3 PIP tumor uptake” value is recorded as 25.96 ± 9.69 % ID/g and the “PSMA− PC3 flu tumor uptake” value came to 0.57 ± 0.14 % ID/g. In data set [4] (setting [5]), this compound came in with a blood uptake of 0.75 ± 0.20 % ID/g, a heart uptake of 0.42 ± 0.16 % ID/g, a kidney uptake of 133.24 ± 21.08 % ID/g and a liver uptake of 0.75 ± 0.19 % ID/g. In addition, in data set [4] (setting [5]), the lung uptake is 2.21 ± 0.48 % ID/g, the muscle uptake is 0.32 ± 0.12 % ID/g, the salivary gland uptake was 1.42 ± 0.33 % ID/g and the small intestine uptake is on record as 0.39 ± 0.09 % ID/g. In data set [4] (setting [5]), this compound yielded a spleen uptake of 12.35 ± 3.75 % ID/g. Moreover, the “PSMA+ PC3 PIP-to-PSMA− PC3 flu ratio” value in data set [4] (2 h post-injection) amounted to 57.68±27.10. In data set [4] (setting [6]), the “PIP:blood ratio” value is recorded as 51.88 ± 10.82, the “PIP:flu (PSMA+ PC3 PIP-to-PSMA− PC3 flu tumor uptake ratio)” value is 57.68 ± 27.10, the “PIP:kidney ratio” value is on record as 0.24 ± 0.04 and the “PSMA+ PC3 PIP tumor uptake” value is on record as 21.08 ± 1.17 % ID/g. Besides, in data set [4] (setting [6]), the “PSMA− PC3 flu tumor uptake” value was found to be 0.41 ± 0.17 % ID/g, the blood uptake was determined as 0.41 ± 0.06 % ID/g, the heart uptake worked out at 0.28 ± 0.06 % ID/g and the kidney uptake was 88.56 ± 20.09 % ID/g. Further, in data set [4] (setting [6]), the liver uptake worked out at 0.33 ± 0.05 % ID/g, the lung uptake was determined as 2.07 ± 0.68 % ID/g, the muscle uptake worked out at 0.19 ± 0.09 % ID/g and the salivary gland uptake is reported as 1.02 ± 0.22 % ID/g. Moreover, in data set [4] (setting [6]), the small intestine uptake is recorded as 0.19 ± 0.07 % ID/g and the spleen uptake came to 8.87 ± 1.50 % ID/g. Moreover, the “PSMA+ PC3 PIP-to-PSMA− PC3 flu ratio” value in data set [4] (3 h post-injection) is 110.57±21.27. In data set [4] (setting [7]), the “PIP:blood ratio” value is 79.55 ± 9.83, the “PIP:kidney ratio” value is 0.22 ± 0.04, the “PIP:salivary gland ratio” value worked out at 31.40 ± 4.85 and the “PSMA+ PC3 PIP tumor uptake” value came out at 26.86±5.59 % ID/g. In data set [4] (setting [7]), the “PSMA− PC3 flu tumor uptake” value amounted to 0.25 ± 0.07 % ID/g, the blood uptake was found to be 0.34 ± 0.06 % ID/g, the heart uptake was found to be 0.20 ± 0.04 % ID/g and the kidney uptake stood at 119.54 ± 15.49 % ID/g. Further, in data set [4] (setting [7]), the liver uptake turned out to be 0.38 ± 0.15 % ID/g, the lung uptake is on record as 1.26 ± 0.20 % ID/g, the muscle uptake turned out to be 0.14 ± 0.02 % ID/g and the salivary gland uptake is 0.86 ± 0.12 % ID/g. In data set [4] (setting [7]), the small intestine uptake was found to be 0.17 ± 0.06 % ID/g and the spleen uptake worked out at 7.18 ± 2.25 % ID/g. Also, in data set [4] (all time-points, P<0.04), the “spleen uptake, comparison with ^68Ga-1 or ^68Ga-2” value was “higher spleen uptake”. Also, the “salivary gland uptake, comparison with ^68Ga-1 and ^68Ga-2” value in data set [4] (up to 3 h after injection, P<0.001) is on record as “significantly higher salivary gland uptake”. In addition, the “uptake and retention in normal tissues (kidney, blood, spleen, salivary glands, PSMA-negative PC3 flu tumors), comparison” value in data set [4] (up to 3 h post-injection) is “highest uptake and retention”.

The record behind these values is patent publication US10717750B2, “68Ga-labeled NOTA-chelated PSMA-targeted imaging and therapeutic agents” (THE JOHNS HOPKINS UNIVERSITY, priority 2009, dated 2020).
